Experimental data taken from paper PMC6571965, “Importance of the Proximity and Orientation of Ligand-Linkage to the Design of Cinnamate-GW9662 Hybrid Compounds as Covalent PPARγ Agonists” (Molecules, 2019).
Entries after “also recorded” stand apart in the source; their conditions may differ. Read-outs that look alike come from different tables or passages of the source.

What was measured:
[1] = target: T1, recombinant PPARγ LBD (Cys285) (Homo sapiens, UniProt P37231); experiment: Proteolytic mapping by MS/MS of ligand modification of PPARγ LBD; assay type: binding; conditions: PPARγ LBD 20 µM, ligand 40 µM, 30 min, trypsin digest
T1 construct: recombinant PPARγ LBD (2 µM) was mixed with various ligands; gift of Dr. Takuji Oyama (Yamanashi University)
T1 sequence (P37231 238-503 limits assumed): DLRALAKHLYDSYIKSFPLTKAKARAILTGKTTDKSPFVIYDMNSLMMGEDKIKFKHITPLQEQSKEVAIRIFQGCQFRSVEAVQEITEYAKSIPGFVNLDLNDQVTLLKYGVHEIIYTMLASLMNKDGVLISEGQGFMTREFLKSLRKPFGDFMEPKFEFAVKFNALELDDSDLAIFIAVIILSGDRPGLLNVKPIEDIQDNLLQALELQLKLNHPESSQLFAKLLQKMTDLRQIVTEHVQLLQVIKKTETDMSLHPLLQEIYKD
Excerpt: (§1) To assess the interactions between the receptor and the synthesized compounds, we initially validated the formation of a covalent bond with Cys285 by performing a rhodamine-maleimide assay. This assay can detect the presence of a covalent modification of Cys285 in the PPARγ LBD because it has only one cysteine residue in its sequences. […] To further confirm the covalent bonding of the synthesized compounds, we conducted proteolytic mapping studies via mass spectroscopy using 4a as a representative compound and 4b as a negative control. The complexes between recombinant PPARγ LBD and the test compounds were trypsinized and subjected to MALDI-TOF MS. Covalent binding of 4a (mass of 466.1 Da) to the PPARγ LBD is assumed to result in a mass change of 431.1 Da for the modified tryptic peptide. By comparison of the tryptic digests of PPARγ, with and without 4a, a candidate peptide containing the attachment site for 4a ([…], m/z 499.7492 Da) was detected by its mass shift to m/z 714.8080 Da (detected as double charged; Figure 3B).
LC-MS/MS detection was performed as previously described. Briefly, purified recombinant PPARγ LBD (20 µM) was incubated with ligands (40 µM) in 20 mM Tris-HCl, pH8.0, 150 mM NaCl, and 1 mM TCEP for 30 min. […]
. […] The calculated y- and b-ions of this peptide with observed ions underlined and the native or modified peptides detected in chromatogram are shown.

[2] = target: T1, recombinant PPARγ LBD (Cys285); experiment: Rhodamine-maleimide assay for covalent modification of Cys285; assay type: binding; conditions: PPARγ LBD 2 µM, 30 min incubation at room temperature
Excerpt: as §1
Rhodamine-Maleimide assay was performed as previously described. Briefly, recombinant PPARγ LBD (2 µM) was mixed with various ligands at the indicated concentrations in 20 mM Tris-HCl, pH8.0, 150 mM NaCl, and 1 mM tris(2-carboxylethyl)phosphine (TCEP). The mixture was incubated for 30 min at room temperature. SDS was added to the reaction mixture to a final concentration of 0.5%, followed by rhodamine red C2 maleimide (Life Technologies, Carlsbad, CA, USA) at a final concentration of 1 mM. After incubation at room temperature for 30 min, samples were treated with SDS-PAGE sample buffer containing β-mercaptoethanol for 30 min at 55 °C and were separated by SDS-PAGE. Fluorescent signals were visualized using the LAS1000 plus image analyzer (Fujifilm, Tokyo, Japan).
. (B), (C) Detection of covalent binding of 4a to Cys285 in the PPARγ LBD by ESI-MS/MS analysis. Fragmentation pattern of peptide […] was obtained from the trypsin digest. The calculated y- and b-ions of this peptide with observed ions underlined and the native or modified peptides detected in chromatogram are shown.

human PPARγ LBD [3] = target: T2, human PPARγ LBD (Homo sapiens, UniProt P37231); experiment: PPARγ reporter assay (GAL4 DNA-binding domain/PPARγ LBD chimera, pUAS-tk-Luc luciferase) in HepG2 cells; assay type: cell-based; design: expressed in transfected cells; host or cells: HepG2; conditions: for EC50 / PPARγ agonist activity (in words): HepG2 cells, pGal4-human PPARγLBD, 6 h treatment; for EC50: mean ± SD, read-out: EC50 (PPARγ agonist activity); for fold more potent than previously synthesized compound 3: PPARγ agonist activity, compared with 3
T2 sequence (P37231 238-503 limits assumed): T1 sequence (P37231 238-503 limits assumed)
Protocol: PPARγ agonist activity was assessed by expression of a GAL4 DNA-binding domain/PPARγ LBD chimera protein using the plasmid pGAL4- PPARγ LBD and the luciferase reporter plasmid pUAS-tk-Luc containing the target sequence of GAL4 [20]. […] This supports our hypothesis that close proximity between the two fragments contributes to the improvement of binding affinity.
The PPARγ reporter assay was carried out as previously reported with slight modifications. pGal4-human PPARγLBD, pUAS-tk-luc and Renilla luciferase transfection control vector (pGL4.74, Promega, Madison, WI, USA) were transfected into HepG2 cells using Hily-max (Dojindo, Kumamoto, Japan) and PPARγ agonist activity was determined from the luciferase activity using the Dual-Luciferase Reporter Assay System (Promega) according to the manufacturer’s protocol.
Figure 2 Transactivation potentials of PPARγ by 4a, b, c, d, e, and 16. The luciferase reporter assay was performed in HepG2 cells transiently cotransfected with pGal4-humanPPARγLBD plasmid, pUAS-tk-Luc reporter, and pGL4.74[hRluc/TK] (Promega). Firefly luciferase activities were normalized to Renilla luciferase activities. Vehicle control data are denoted as 1. […] All the results are presented as the mean ± SD (n = 3) of three independent experiments. * p < 0.001, compared with vehicle control.

[4] = target: T3, human PPARγ LBD C285A mutant (Homo sapiens, UniProt P37231, C313A); experiment: Luciferase reporter gene assay with C285A mutant of pGal4-humanPPARγLBD in HepG2 cells; conditions: 6 h, troglitazone 10 μM
T3 sequence (P37231 232-505 C313A): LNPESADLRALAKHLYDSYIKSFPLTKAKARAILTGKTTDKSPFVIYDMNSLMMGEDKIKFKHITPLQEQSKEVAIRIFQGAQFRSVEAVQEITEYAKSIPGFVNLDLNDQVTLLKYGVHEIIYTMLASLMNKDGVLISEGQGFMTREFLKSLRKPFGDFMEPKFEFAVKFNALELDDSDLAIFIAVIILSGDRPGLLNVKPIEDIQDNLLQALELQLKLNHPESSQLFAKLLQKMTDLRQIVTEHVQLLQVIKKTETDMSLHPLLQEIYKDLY
Excerpt: (§2) We first examined the relationship between covalent binding to the Cys285 residue and the agonist activity by a luciferase reporter gene assay using PPARγ mutants where the cysteine was substituted to an alanine (C285A). […] To examine this idea, we monitored the levels of luciferase activity upon withdrawal of the synthesized agonists.

human PPARγ LBD [5] = target: T2, human PPARγ LBD; experiment: Luciferase reporter assay after ligand withdrawal in HepG2 cells; conditions: 6 h treatment (troglitazone 10 μM; 4a, 4c 100 nM), washed, 24 h after withdrawal
Excerpt: as §2

human PPARγ LBD [6] = target: T2, human PPARγ LBD; design: expressed in transfected cells; host or cells: HepG2; method as in PMID 26414848; conditions: previously synthesized compound; read-out: EC50 value (partial agonistic activity); cited from earlier work

Row | EC50 (human PPARγ LBD [3]) [nM] | SMILES | fluorescence of rhodamine-labeled PPARγ LBD (covalent bond with Cys285) [2] | PPARγ agonist activity (in words) (human PPARγ LBD [3]) | further results
1 |  | O=C(Nc1ccccc1)c1cc([N+](=O)[O-])ccc1Cl [GW9662] | decreased |  | 
2 | 4.11 ± 0.13 | CCOC(=O)/C=C/c1ccc(Oc2ccccc2NC(=O)c2cc([N+](=O)[O-])ccc2Cl)cc1 [Compound 4c, (E)-Ethyl 3-{4-[2-(2-chloro-5-nitrobenzamido)phenoxy]phenyl}acrylate] | decrease of labeled PPARγ LBD was also found |  | fold more potent than previously synthesized compound 3 (human PPARγ LBD [3]): about 3 fold; transactivation in the C285A mutant [4]: did not show the transactivation; luciferase transcription activity after withdrawal of ligand (human PPARγ LBD [5]): sustained transcription activity 24 h after withdrawal
3 |  | CCOC(=O)/C=C/c1ccc(Oc2cccc(NC(=O)c3cccc([N+](=O)[O-])c3)c2)cc1 [Compound 4b, (E)-Ethyl 3-{4-[3-(3-nitrobenzamido)phenoxy]phenyl}acrylate] | decrease of fluorescence was not observed | had no agonist activity | covalent adduct with Cys285 detected by mass shift of tryptic peptide IFQGCQFR [1]: these mass shifts were not exhibited
4 |  | CCOC(=O)/C=C/c1ccc(OCCc2ccc(NC(=O)c3cc([N+](=O)[O-])ccc3Cl)cc2)cc1 [Compound 16, (E)-Ethyl 3-(4-{2-[4-(2-chloro-5-nitrobenzamido)phenyl]ethoxy}phenyl)acrylate] | showed the decrease of fluorescence | disappearance of activity; also recorded: exhibited no agonistic activity | 
5 |  | CCOC(=O)/C=C/c1ccc(Oc2ccc(NC(=O)c3cc([N+](=O)[O-])ccc3Cl)cc2)cc1 [Compound 4d, (E)-Ethyl 3-{4-[4-(2-chloro-5-nitrobenzamido)phenoxy]phenyl}acrylate] | showed the decrease of fluorescence | completely abolished; also recorded: exhibited no agonistic activity | 
6 | 2.54 ± 1.3 | CCOC(=O)CCc1ccc(Oc2cccc(NC(=O)c3cc([N+](=O)[O-])ccc3Cl)c2)cc1 [Compound 4e, Ethyl 3-{4-[3-(2-chloro-5-nitrobenzamido)phenoxy]phenyl}propanoate] |  |  | 
7 |  | CCOC(=O)/C=C/c1ccc(OCCc2cccc(NC(=O)c3cc([N+](=O)[O-])ccc3Cl)c2)cc1 [Compound 3] |  |  | EC50 (human PPARγ LBD [6]): 14 nM

Row | SMILES | EC50 (human PPARγ LBD [3]) [nM] | fluorescence of rhodamine-labeled PPARγ LBD (covalent bond with Cys285) [2] | PPARγ agonist activity (in words) (human PPARγ LBD [3]) | further results
8 | CCOC(=O)/C=C/c1ccc(Oc2cccc(NC(=O)c3cc([N+](=O)[O-])ccc3Cl)c2)cc1 [Compound 4a, (E)-Ethyl 3-{4-[3-(2-chloro-5-nitrobenzamido)phenoxy]phenyl}acrylate] | 5.13 ± 0.45 | decrease of labeled PPARγ LBD was also found |  | covalent adduct with Cys285 detected by mass shift of tryptic peptide IFQGCQFR [1]: identified as the Cys285 residue; fold more potent than previously synthesized compound 3 (human PPARγ LBD [3]): about 3 fold; transactivation in the C285A mutant [4]: did not show the transactivation; luciferase transcription activity after withdrawal of ligand (human PPARγ LBD [5]): sustained transcription activity 24 h after withdrawal
